Measured values taken from patent US20250034586A1, “METHOD FOR EDITING BANANA GENES” (Tropic Biosciences UK Limited, priority 2021, published 2025).

Columns and labels:
banana ECS [1] = experiment: Comparison of Agrobacterium transformation and particle bombardment under CSF selection; assay type: cell-based; conditions: CSF 25 μg/L, particle bombardment
Description: Transformation using agrobacterium and particle bombardment was compared.
Banana ECS with cells 2/3 days old was pelleted and resuspended in CS medium. 0.5 mL of the suspension (approximately 0.1 mL of ECS) was split accordingly to the number of transformations into small Eppendorf tubes. The cells were incubated at 45° C. for 5 min and after they had cooled down for another 5 min. Then, 1 mL of agrobacterium suspension was added to the banana ECS. The mixture was mixed well and spun down at 1000 rpm for 5 min, and then, it was incubated for 25 min at room temperature. The banana cells were pooled, and the bacteria suspension was removed. The cells were inoculated in CS plates supplemented with acetosyringone 100 μM for 3 days at room temperature to promote transformation.
After 3 days, the banana ECS were collected from the previous media and transferred to CS media supplemented with cefotaxime 300 mg/L. One week later, the banana cells were transferred to EDM plates supplemented with cefo 300 mg/L (control), or cefo 300 mg/L and CSF 25 μg/L or cefo 300 mg/L and CSF 50 μg/L. The media was refreshed every 2 weeks until embryos were developed. Subsequently, the banana embryos were transferred to maturation media without CSF (EMM) for a month and then they were transferred to germination medium (GM4) without CSF until shoots developed.

Potato somatic cells = conditions: cited from earlier work
[2] = system: Banana embryogenic cell suspensions (ECS); experiment: CSF kill curves in banana ECS (number of embryos after short CSF treatment); assay type: cell-based; conditions: for Number of banana embryos developed (Avg): 3 months after treatment
Description: Banana embryogenic cell suspensions (ECS) were pelleted in a falcon tube and mixed with CS (cell suspension) medium to a final cell density of 1-3%. An equal volume of the mixture was split into 6 flasks and the relevant amount of CSF was added to the final concentrations of 0, 10, 20, 50, 100 and 500 μg/L (1st kill curve) or 0, 0.5, 5, 50 and 100 mg/L (2nd kill curve). The ECS-CSF mixtures were placed/inoculated in 6 well plates (5 mL per well) and incubated at 65 rpm in the dark for 3, 5, 10, 15 days at 25° C.
At each time point, the ECS were collected in a cell strainer and washed with CS (cell suspension) medium to remove all the CSF. The cells were collected from the strainer and inoculated into embryo developing media (EDM) plates and developed for 2-3 months (until fully developed embryos were observed). The cells/embryos were subcultured every month. Each treatment was performed in triplicate and treated independently.
The number of embryos was assessed 2-3 months after CSF treatment. The embryos were counted under a stereo microscope using a 50-square grid to help the counting. For plates with too many embryos, only 3 squares from the 50 were counted and then the number of embryos was normalised for all of the plate. For the other plates all embryos were counted. Mean values±standard deviation (Stdev) were obtained from 3 technical replicates.

banana ECS [3] = experiment: CSF selection of embryos from Agrobacterium-transformed banana ECS; assay type: cell-based; conditions: after 3 months
Description: Agrobacterium tumefaciens AGL1 carrying the binary plasmids pMol_0628, pMol_0630, and pMol_0632 were streaked from glycerol in LB solid medium supplemented with rifampicin 50 mg/L, kanamycin 100 mg/L and carbenicillin 50 mg/L and incubated at 28° C. for 2 days. On the second day, the bacteria were inoculated in MG/L medium (discussed in Sarkar et al., Methods Mol Biol. 2013; 966: 187-204) supplemented with the same antibiotics and incubated overnight at 28° C. Next day, the cultures were spun down at 4000 rpm for 10 min to pellet the cells and after they were resuspended in ABIM (Agrobacterium induction media; discussed in Sarkar et al., Methods Mol Biol. 2013; 966: 187-204) to induce virulence and incubated overnight in the dark at room temperature. The OD600 of the bacteria was measured using NanoDrop2000 and normalised to 0.6 in CS liquid media supplemented with acetosyringone (100 μM).
Banana ECS with 2/3 day-old cells was pelleted and resuspended in CS medium. 0.5 mL of the suspension (approximately 0.1 mL of ECS) was split according to the number of transformations into small Eppendorf tubes. The cells were incubated at 45° C. for 5 min and after they were incubated at room temperature for another 5 min. Then, 1 mL of agrobacterium suspension was added to each banana ECS sample. […]

COc1nc(C)nc(NC(=O)NS(=O)(=O)c2ccccc2Cl)n1 [CSF, chlorsulfuron]
Suitability for selection of edited bombarded cells (banana ECS [1]): too strong for selection of edited bombarded cells | CSF concentration reported to be effective (Potato somatic cells): 20 µg/L | Embryo number, 1st CSF kill curve ([2]; 0, 10, 20, 50, 200, 500 μg/L CSF for 3, 5, 10 and 15 days): major differences in embryo number were not observed | Fold-change non-CSF/+CSF (number of embryos) ([2]; 0.5 mg/L CSF for 5dd): 2.9 | Number of banana embryos developed (Avg) ([2]; 0.5 mg/L CSF for 5dd, 3 technical replicates): 1109 | Fold-change non-CSF/+CSF (number of embryos) ([2]; 0.5 mg/L CSF for 10dd): 32.6 | Number of banana embryos developed (Avg) ([2]; 0.5 mg/L CSF for 10dd): 127 | Fold-change non-CSF/+CSF (number of embryos) ([2]; 0.5 mg/L CSF for 15dd): 22.3 | Number of banana embryos developed (Avg) ([2]; 0.5 mg/L CSF for 15dd): 217 | Fold-change non-CSF/+CSF (number of embryos) ([2]; 5 mg/L CSF for 5dd): 24.9 | Number of banana embryos developed (Avg) ([2]; 5 mg/L CSF for 5dd): 127 | Fold-change non-CSF/+CSF (number of embryos) ([2]; 5 mg/L CSF for 10dd): 229.9 | Number of banana embryos developed (Avg) ([2]; 5 mg/L CSF for 10dd): 18 | Fold-change non-CSF/+CSF (number of embryos) ([2]; 5 mg/L CSF for 15dd): 167.0 | Number of banana embryos developed (Avg) ([2]; 5 mg/L CSF for 15dd): 29 | Decrease in the number of embryos ([2]; 5 mg/L CSF for 10 days): higher than 200 × | Fold-change non-CSF/+CSF (number of embryos) ([2]; 50 mg/L CSF for 5dd): 54.5 | Number of banana embryos developed (Avg) ([2]; 50 mg/L CSF for 5dd): 58 | Fold-change non-CSF/+CSF (number of embryos) ([2]; 50 mg/L CSF for 10dd): 459.8 | Number of banana embryos developed (Avg) ([2]; 50 mg/L CSF for 10dd): 9 | Fold-change non-CSF/+CSF (number of embryos) ([2]; 50 mg/L CSF for 15dd): 1210.5 | Number of banana embryos developed (Avg) ([2]; 50 mg/L CSF for 15dd): 4 | Fold-change non-CSF/+CSF (number of embryos) ([2]; 100 mg/L CSF for 5dd): 55.5 | Number of banana embryos developed (Avg) ([2]; 100 mg/L CSF for 5dd): 57 | Fold-change non-CSF/+CSF (number of embryos) ([2]; 100 mg/L CSF for 10dd): 517.3 | Number of banana embryos developed (Avg) ([2]; 100 mg/L CSF for 10dd): 8 | Fold-change non-CSF/+CSF (number of embryos) ([2]; 100 mg/L CSF for 15dd): 345.9 | Number of banana embryos developed (Avg) ([2]; 100 mg/L CSF for 15dd): 14 | CSF concentrations at which colour changes in banana ECS were observed ([2]; 2nd kill curve, after treatment): higher than 5 mg/L | Minimal lethal dose (concentration reducing number of embryos 100×; measure of success met) ([2]; 10 days of treatment): 5 mg/L | Killing of banana cells ([2]; five days of treatment, 2nd kill curve): inefficient for killing banana cells | Embryos, untransformed cells (banana ECS [3]; CSF 25 μg/L): No | Embryos, untransformed cells (banana ECS [3]; CSF 50 μg/L): No
